# Test results from patent publication EP0430194A2, “Aryl-alkyl-azoles substituted with many times unsaturated groups, process for their preparation and their use” (HOECHST AKTIENGESELLSCHAFT, priority 1989, dated 1991).
# Key:
# [1] = tested on: Trichophyton mentagrophytes; assay: Local in vivo efficacy, dermal treatment of guinea pigs infected with Trichophyton mentagrophytes; settings: Dermal 5 x 0,1 %; for Mykosen (Durchmesser in mm) Mittelwert (Standardabweich.): Meerschweinchen (Pirbright white), from day 3 after infection, n = 6; for Reduktion in %: Meerschweinchen, relative to Bifonazol = 100,0
# Excerpt: Als Beispiel für die hohe lokale in vivo Wirksamkeit der erfindungsgemäßen Verbindungen werden Behandlungsergebnisse an Experimenten mit Trichophyton mentagrophytes infizierten Labortieren angeführt.
# Zur Feststellung der lokalen Wirksamkeit wurde jeweils ein 450 - 500 g schweres Meerschweinchen (Stamm Pirbright white) mit 1,5 x 10⁴ Konidien/Tier in die Epidermis verteilt auf 6 Infektionspunkte, infiziert.
# Die Behandlung der Tiere erfolgte dermal ab dem 3. Tag nach der Infektion an 5 aufeinander folgenden Tagen durch Aufbringen einer 0,1 %igen Präparatlösung auf 6 Infektionsstellen der Rückenseite.
# Neben den mit den erfindungsgemäßen Substanzen behandelten Tieren wurde ein Tier mit der Referenzsubstanz Bifonazol behandelt, ein Tier blieb nach der Infektion unbehandelt.
# [2] = tested on: freigesetzten Exoenzyme von Candida albicans; assay: In vitro enzyme test: inhibition of released exoenzymes of Candida albicans blastoconidia on egg-yolk agar plate; format: cell-based; settings: Stamm 200/175
# Excerpt: Als Beispiel für die Hemmung der pathogenen Phase dimorpher Hefezellen werden Ergebnisse eines in-vitro-Enzymtests angeführt, in welchen die prozentuale Hemmung freigesetzter Exoenzyme, insbesondere freigesetzter Lysophospholipase (Phospholipase B), als Maß für die Wirksamkeit bestimmt wird.
# Zur Feststellung der Enzymhemmung wurde eine Suspension von Candida albicans Blastokonidien (Stamm 200/175), wobei die Keimdichte photometrisch auf eine Extinktion von 0,5 (500 nm) eingestellt war, mit Präparatelösung bzw. zur Kontrolle mit Lösungsmittellösung vermischt und zwar • a) 100 µl Präparatelösung (Suspension) + 900 µl Keimsuspension • b) 100 µl Lösungsmittel + 900 µl Keimsuspension
# Jeweils 5 µl der 30 min bei 21°C inkubierten Blastokonidiensuspension wurden auf eine Agarplatte (Sabourand Agar mit Zusatz von 8 % Eigelb, 1 M NaCl, 5 mM CaCl₂) aufgetropft.
# Die so beimpfte Platte wurde 3 Tage bei 37°C bebrütet.
# Die Auswertung erfolgte derart, daß • 1. der Durchmesser (mm) der Candida albicans-Kolonie (behandelt und unbehandelt) sowie • 2. der Gesamtdurchmesser von Kolonie und Trübungshof, welcher durch Exoenzyme verursacht wurde (behandelt und unbehandelt) bestimmt wurde.
# Aus der Bestimmung des Quotienten von Präparate- und Kontrollgruppe ergab sich ein Wert, der als Maß für die Enzymaktivität anzusehen war.
# [3] = tested on: Phospholipase aus Leberzellen; settings: literature, Biochem. Pharmacol. 34, 521-24, 1985; cited from earlier work
# [4] = Präparat-Konzentration 10 µg/ml
# [5] = Präparat-Konzentration 50 µg/ml
# [6] = Präparat-Konzentration 100 µg/ml
smiles,measurement,setting,value
"CC(C)=CCC/C(C)=C\COC(Cn1ccnc1)c1ccc(Cl)cc1Cl (racemic) [Beispiel 2, (R,S)-1-(2,4-Dichlorphenyl)-1-(cis-3,7-dimethyl-2,6-octadien-1-oxy)-2-(imidazol-1-yl)-ethan]",Mykosen (Durchmesser in mm) Mittelwert (Standardabweich.),[1],"3,3 (0,5) mm"
same,Reduktion in %,[1],"139,3%"
same,Prozentuale Hemmung der freigesetzten Exoenzyme von Candida albicans in vitro,[2]; [4],"41,2%"
same,Prozentuale Hemmung der freigesetzten Exoenzyme von Candida albicans in vitro,[2]; [5],100%
same,Prozentuale Hemmung der freigesetzten Exoenzyme von Candida albicans in vitro,[2]; [6],100%
CC(C)=CCC/C(C)=C\COC(Cn1cncn1)c1ccc(Cl)cc1Cl (racemic) [Beispiel 5],Mykosen (Durchmesser in mm) Mittelwert (Standardabweich.),[1],"2,6 (1,5) mm"
same,Reduktion in %,[1],"176,9%"
CC(C)=CCC/C(C)=C\COC(CCn1ccnc1)c1cccs1 (racemic) [Beispiel 40],Mykosen (Durchmesser in mm) Mittelwert (Standardabweich.),[1],"2,8 (1,7) mm"
same,Reduktion in %,[1],"164,2%"
CC(C)=CCC/C(C)=C\COC(Cn1cncn1)c1ccc(Cl)s1 (racemic) [Beispiel 42],Prozentuale Hemmung der freigesetzten Exoenzyme von Candida albicans in vitro,[2]; [4],"50,0%"
same,Prozentuale Hemmung der freigesetzten Exoenzyme von Candida albicans in vitro,[2]; [5],100%
same,Prozentuale Hemmung der freigesetzten Exoenzyme von Candida albicans in vitro,[2]; [6],100%
CC(C)=CCC/C(C)=C\COC(Cn1ccnc1)c1ccccn1 (racemic) [Beispiel 46],Mykosen (Durchmesser in mm) Mittelwert (Standardabweich.),[1],"2,8 (1,6) mm"
same,Reduktion in %,[1],"164,2%"
CC(C)=CCC/C(C)=C\COC(Cn1ccnc1)c1ccco1 (racemic) [Beispiel 47],Mykosen (Durchmesser in mm) Mittelwert (Standardabweich.),[1],"3,6 (0,8) mm"
same,Reduktion in %,[1],"127,7%"
"c1ccc(-c2ccc(C(c3ccccc3)n3ccnc3)cc2)cc1 (stereo not shown) [Bifonazol, reference compound]",Mykosen (Durchmesser in mm) Mittelwert (Standardabweich.),[1],"4,6 (1,5) mm"
same,Reduktion in %,[1],"100,0%"
"CC(C)NCC(O)COc1cccc2ccccc12 (stereo not shown) [Propranolol, reference compound]",Hemmwirkung gegenüber Phospholipase aus Leberzellen,[3],Hemmwirkung zeigte
same,Prozentuale Hemmung der freigesetzten Exoenzyme von Candida albicans in vitro,[2]; [4],0%
same,Prozentuale Hemmung der freigesetzten Exoenzyme von Candida albicans in vitro,[2]; [5],10%
same,Prozentuale Hemmung der freigesetzten Exoenzyme von Candida albicans in vitro,[2]; [6],30%
